Reference: patent publication US20120196899A1, “METHODS AND PRODUCTS FOR TREATING INFLAMMATION” (Rock Creek Pharmaceuticals, Inc., priority 2010, published 2012)
Several values for one entry are separate records, joined by “and”; a condition that tells them apart may be missing. Equal entries are not always repeated.

Tests used:
[1] = tested on: autoimmune thyroiditis; test: Autoimmune thyroiditis in thyroglobulin-immunized mice (Example 16B); assay type: in vivo, CBA/J female mice; conditions: 0.05 mg/ml in drinking water
Experimental: In another experiment, eighteen CBA/J female mice were immunized with mouse thyroglobulin, emulsified in complete Freund's adjuvant, on day 0 and day 7. One group of mice (n=10) drank regular water. […] Mice were sacrificed 21 days after the first immunization to collect the thyroid gland and the blood. The thyroid was analyzed for the presence of infiltrating mononuclear cells. The blood was analyzed for the levels of antibodies against thyroglobulin.

[2] = Clinical chemistry, day 15; assay type: in vivo, Sprague-Dawley rats
From the text: On day 15, urine was collected on all surviving animals for urinalysis. The animals were euthanized and bled via cardiac puncture. Blood was collected for hematology, clinical chemistry, and coagulation analysis. Tissues were collected, weighed, and stored in 10% neutral-buffered formalin for possible future analysis.

[3] = anatabine 0.1 mg/kg, female rats, individual animals
[4] = anatabine 0.1 mg/kg, male rats, individual animals
[5] = anatabine 0.75 mg/kg, female rats, individual animals

With `C1=CCC(c2cccnc2)NC1` (racemic) [Anatabine, 1,2,3,6-tetrahydro-[2,3′]bipyridinyl] the “levels of thyroglobulin antibodies” value ([1]; day 21) was “had no effect on the levels of thyroglobulin antibodies”, the “thyroiditis frequency and severity” value ([1]; day 21, p=0.023) was “developed thyroiditis less frequently and of lower severity” and the CHLORIDE ([2]; Mean, F, 0.1 mg/kg) was 100.20 mEq/L. It also gave a CHOLESTEROL ([2]; Mean, F, 0.1 mg/kg) of 76.40 mg/dL, a CREATININE ([2]; Mean, F, 0.1 mg/kg) of 0.44 mg/dL and a GLUCOSE ([2]; Mean, F, 0.1 mg/kg) of 207.60 mg/dL. The PHOSPHORUS ([2]; Mean, F, 0.1 mg/kg) was 8.08 mg/dL, the POTASSIUM ([2]; Mean, F, 0.1 mg/kg) was 5.82 mEq/L and the SODIUM ([2]; Mean, F, 0.1 mg/kg) was 146.80 mEq/L. The CHLORIDE ([2]; Mean, F, 0.75 mg/kg) was 98.00 mEq/L, the CHOLESTEROL ([2]; Mean, F, 0.75 mg/kg) was 69.80 mg/dL and the CREATININE ([2]; Mean, F, 0.75 mg/kg) was 0.44 mg/dL. For the same compound, the GLUCOSE ([2]; Mean, F, 0.75 mg/kg) was 220.80 mg/dL, the PHOSPHORUS ([2]; Mean, F, 0.75 mg/kg) was 8.64 mg/dL and the POTASSIUM ([2]; Mean, F, 0.75 mg/kg) was 5.88 mEq/L. The SODIUM ([2]; Mean, F, 0.75 mg/kg) was 145.00 mEq/L, the CHLORIDE ([2]; Mean, M, 0.1 mg/kg) was 98.00 mEq/L and the CHOLESTEROL ([2]; Mean, M, 0.1 mg/kg) was 67.20 mg/dL. For the same compound, the CREATININE ([2]; Mean, M, 0.1 mg/kg) was 0.36 mg/dL, the PHOSPHORUS ([2]; Mean, M, 0.1 mg/kg) was 10.82 mg/dL and the POTASSIUM ([2]; Mean, M, 0.1 mg/kg) was 6.40 mEq/L. It also gave an SODIUM ([2]; Mean, M, 0.1 mg/kg) of 146.20 mEq/L, a CHLORIDE ([2]; Mean, M, 0.75 mg/kg) of 98.60 mEq/L and a CHOLESTEROL ([2]; Mean, M, 0.75 mg/kg) of 62.80 mg/dL. It also gave a CREATININE ([2]; Mean, M, 0.75 mg/kg) of 0.36 mg/dL, a GLUCOSE ([2]; Mean, M, 0.75 mg/kg) of 202.00 mg/dL and a PHOSPHORUS ([2]; Mean, M, 0.75 mg/kg) of 10.92 mg/dL. For the same compound, the POTASSIUM ([2]; Mean, M, 0.75 mg/kg) was 6.12 mEq/L, the SODIUM ([2]; Mean, M, 0.75 mg/kg) was 147.80 mEq/L and the ALBUMIN [2, 3] was 3.6 g/dL (3×) and 3.5 g/dL and 3.8 g/dL. For the same compound, the “ALK PHOSPHATASE” value [2, 3] was 261 IU/L and 140 IU/L and 209 IU/L and 412 IU/L and 220 IU/L, the ALT [2, 3] was 57 IU/L and 43 IU/L and 47 IU/L and 62 IU/L and 39 IU/L and the AST [2, 3] was 78 IU/L and 69 IU/L and 70 IU/L and 86 IU/L and 82 IU/L. The BUN [2, 3] was 21 mg/dL (2×) and 19 mg/dL (3×), the CHLORIDE [2, 3] was 99 mEq/L and 102 mEq/L (2×) and 97 mEq/L and 101 mEq/L and the CHOLESTEROL [2, 3] was 90 mg/dL and 74 mg/dL and 65 mg/dL and 66 mg/dL and 87 mg/dL. For the same compound, the CREATININE [2, 3] was 0.4 mg/dL (3×) and 0.5 mg/dL (2×), the “DIR BILIRUBIN” value [2, 3] was 0 mg/dL and the GLOBULIN [2, 3] was 3.1 g/dL (3×) and 3 g/dL. For the same compound, the GLUCOSE [2, 3] was 224 mg/dL and 170 mg/dL and 227 mg/dL and 220 mg/dL and 197 mg/dL, the PHOSPHORUS [2, 3] was 8.5 mg/dL (2×) and 8.2 mg/dL and 7.4 mg/dL and 7.8 mg/dL and the POTASSIUM [2, 3] was 5.4 mEq/L and 6.3 mEq/L and 5.2 mEq/L and 5.5 mEq/L and 6.7 mEq/L. The SODIUM [2, 3] was 147 mEq/L and 145 mEq/L, the “TOT BILIRUBIN” value [2, 3] was 0 mg/dL and the “TOT PROTEIN” value [2, 3] was 6.7 g/dL (2×) and 6.3 g/dL and 6.9 g/dL and 6.6 g/dL. For the same compound, the ALBUMIN [2, 4] was 3.4 g/dL (2×) and 3.2 g/dL and 3.1 g/dL (2×), the “ALK PHOSPHATASE” value [2, 4] was 470 IU/L and 227 IU/L and 364 IU/L and 358 IU/L and 618 IU/L and the ALT [2, 4] was 92 IU/L and 65 IU/L and 74 IU/L and 44 IU/L and 78 IU/L. The AST [2, 4] was 97 IU/L and 99 IU/L and 93 IU/L and 85 IU/L and 106 IU/L, the BUN [2, 4] was 18 mg/dL (2×) and 21 mg/dL and 14 mg/dL and 19 mg/dL and the CHLORIDE [2, 4] was 98 mEq/L and 97 mEq/L (2×) and 99 mEq/L (2×). For the same compound, the CHOLESTEROL [2, 4] was 65 mg/dL and 64 mg/dL and 75 mg/dL and 56 mg/dL and 76 mg/dL, the CREATININE [2, 4] was 0.4 mg/dL (3×) and 0.3 mg/dL (2×) and the “DIR BILIRUBIN” value [2, 4] was 0 mg/dL. For the same compound, the GLOBULIN [2, 4] was 2.9 g/dL (2×) and 2.6 g/dL and 3.1 g/dL, the GLUCOSE [2, 4] was 258 mg/dL and 214 mg/dL and 194 mg/dL and 210 mg/dL and the PHOSPHORUS [2, 4] was 10.3 mg/dL (2×) and 10.8 mg/dL. The POTASSIUM [2, 4] was 5.9 mEq/L and 6.5 mEq/L and 6.6 mEq/L and 6.9 mEq/L and 6.1 mEq/L, the SODIUM [2, 4] was 144 mEq/L and 147 mEq/L and the “TOT BILIRUBIN” value [2, 4] was 0 mg/dL. For the same compound, the “TOT PROTEIN” value [2, 4] was 6.3 g/dL (2×) and 5.8 g/dL and 5.9 g/dL and 6.2 g/dL, the ALBUMIN [2, 5] was 3.5 g/dL (2×) and 3.6 g/dL (2×) and 3.4 g/dL and the “ALK PHOSPHATASE” value [2, 5] was 123 IU/L and 142 IU/L and 235 IU/L and 130 IU/L and 160 IU/L. For the same compound, the ALT [2, 5] was 63 IU/L and 49 IU/L (2×) and 55 IU/L and 57 IU/L, the AST [2, 5] was 95 IU/L and 69 IU/L and 76 IU/L and 54 IU/L and 72 IU/L and the BUN [2, 5] was 15 mg/dL (3×) and 16 mg/dL (2×).
